Results on 15 compounds are retold here after patent US6943194B1, “Synthesis of phenstatin and prodrugs thereof” (Arizona Board of Regents, acting for and on behalf of …, priority 1998, dated 2005).

Where two headings read alike, the source gives them in different places.

One data set concerns tubulin. The experiment in a line: Inhibition of [3H]colchicine binding to tubulin. Also on record: species or system bovine. The settings on record: for Inhibition of colchicine binding % inhibition: 1.0 μM tubulin, 5.0 μM [3H]colchicine, 5.0 μM inhibitor, 10 min at 37° C. The method, then:
Reaction mixtures contained 0.1 mg/mL (1.0 μM) tubulin, 5.0 μM [3H]colchicine, and 5.0 μM inhibitor and were incubated for 10 min at 37° C.

The test system of a further data set is KM20L2. The data set is described as follows: Human cancer cell growth inhibition, colon KM20L2. The data set is classed as cell-based.
The next data set concerns SK-MEL-5. The experiment in a line: Human cancer cell growth inhibition, melanoma SK-MEL-5. The data set is classed as cell-based.
The test system of a further data set is OVCAR-3. The data set is described as follows: Human cancer cell growth inhibition, ovarian OVCAR-3. The data set is classed as cell-based.
The test system of the next data set is NCI-H460. The experiment in a line: Human cancer cell growth inhibition, lung-NSC NCI-H460. The data set is classed as cell-based.
In data set [1] the test system is P388 Lymphocytic Leukemia Cell Line. The experiment in a line: Murine P388 lymphocytic leukemia cell line growth inhibition. Format: cell-based.
The next data set has as its system A498. The experiment in a line: Human cancer cell growth inhibition, renal A498. The data set is classed as cell-based.
The subject of the next data set is bovine brain tubulin. The data set is described as follows: Inhibition of tubulin polymerization. The data set is classed as biochemical. The settings on record: for IC50: 10 μM tubulin, extent of assembly after 20 min at 30° C., read-out: Inhibition of tubulin polymerization IC50, μM ± SD; for activity against tubulin / in inhibiting assembly (in words): purified tubulin. How it is done: Electrophoretically homogeneous bovine brain tubulin was purified from bovine brain as described previously (Hamel, et al., Separation of active tubulin and microtubule-associated proteins by ultracentrifugation and isolation of a component causing the formation of microtubule bundles, Biochemistry 1984, 23, 4173-4184). Reaction mixtures (0.24 mL during preincubation, 0.25 mL during incubation, with all concentrations referring to the final volume) contained 0.8 M monosodium glutamate (taken from 2.0 M stock solution adjusted to pH 6.6 with Hcl), 1.0 mg/mL (10 μM) tubulin, 4% (v/v) dimethyl sulfoxide, and varying concentrations of drug. Samples were incubated for 15 min at 30° C. and chilled on ice. GTP, required for polymerization, was added in 10 μL to a final concentration of 0.4 mM. Samples were transferred to cuvettes held at 0° C. by electronic temperature controllers in GILFORD model 250 recording spectrophotometers. Baselines were established, and the reaction was initiated by a jump (approximately 1 min) to 30° C. Extent of assembly after 20 min was the parameter used to determine IC50 values. […] In most experiments, four spectrophotometers were used, with two control reaction mixtures.

The test system of data set [2] is NCI 60 Cell-Line Human Tumor Screen. The data set is described as follows: NCI 60 cell-line human tumor screen. The data set is classed as cell-based. The following applies: read-out: Mean Panel GI50 (±S.D). The source says: (§1) Compounds 3b, 3d, 1d, and 4a-f were comparatively evaluated in the NCI 60 cell-line human tumor screen (Boyd, Status of the NCI preclinical antitumor drug discovery screen. Implications for selection of new agents for clinical trial, CANCER: Principles and Practices of Oncology Updates, DeVita, et al. (Eds.), Lippincott: Philadelphia, 1989; Vol. 10, No. 3, pp. 1-12; Boyd, The Future of New Drug Development. Section I. Introduction to Cancer Therapy, Current Therapy in Oncology, Niederhuber, (Ed.), B. C. Decker, Inc.: Philadelphia, 1993; pp. 11-22; Boyd, et al., Data display and analysis strategies from NCI disease-oriented in vitro antitumor drug screen. In Cytotoxic Anticancer Drugs: Models and Concepts for Drug Discovery and Development, Valeriote, et al. (Eds.), Kluwer Academic Publishers: Amsterdam, 1992; pp. 11-34; Stinson, et al., Morphological and Immunocytochemical Characteristics of Human Tumor Cell Lines for Use in a Disease-Oriented Anticancer Drug Screen, Anticancer Res. 1992, 12,-1035-1054; Boyd, et al., Some Practical Considerations and Applications of the NCI in vitro Drug Discovery Screen, Drug Dev. Res. 1995, 34, 91-109).

The next data set relates to SF-295. The experiment in a line: Human cancer cell growth inhibition, CNS SF-295. Format: cell-based.
Data set [3] can be described thus: Solubility in distilled water. Format: physicochemical. The settings on record: distilled water at 25° C. The method, then:
The deprotected phosphate (0.44 g, 1.10 mmol) was dissolved in anhydrous methanol (15 mL) and sodium methoxide ([…], 2.20 mmol) was added at room temperature. The cloudy solution was stirred for 20 hours and the reaction mixture was concentrated to a white solid that was washed with 2-propanol and recrystallized (3×) from water-acetone. The phenstatin prodrug (3d, 0.38g, 78% yield) was collected by filtration and found to give; LRFAB m/z 443.02 (M+H+), calculated 443.048, EIMS m/z (peak height) 318 (100%, M+—PO3Na2+H), 303 (12%), 195 (20%), 151 (23%); ^1H-NMR (D2O) δH 7.644 (1H, t, J2/61.8 Hz, H-2), 7.366 (1H, dd, J6/2 1.8 Hz, J6/58.5 Hz, H-6), 7.006 (1H, d, J5/6 8.5 Hz, H-5), 6.933 (2H, s, H-2′, 6′), 3.844 (3H, s, 4′-OCH3), 3.748 (6H, s, 3′, 5′-OCH3) 3.734 (3H, s, 4OCH3); ^13C-NMR (D2O, reference to CDCl3) δC 193.5 (C═O), 151.1; and ^31P-NMR (D2O, decoupled, […]) δP −1.965.

In a further data set the test system is pharynx FADU. The data set is described as follows: Human cancer cell line inhibition, pharynx FADU. Format: cell-based.
Excerpt: as §1

In a further data set the test system is CNS U251. The experiment in a line: Human cancer cell line inhibition, CNS U251. The data set is classed as cell-based. The settings on record: U-251.
Excerpt: as §1

Another data set has as its system prostate DU-145. The data set is described as follows: Human cancer cell line inhibition, prostate DU-145. Format: cell-based.
Excerpt: as §1

Where [4] appears, read: mean over NCI 60 cell-line panel, tested in triplicate.
[5] abbreviates: Homo sapiens, mean over NCI 60 cell-line panel, tested in triplicate.

With `COc1ccc(/C=C\c2cc(OC)c(OC)c(OC)c2)cc1O` [Compound 1b, combretastatin A-4, reference compound], the “Inhibition of colchicine binding % inhibition” value in the data set with tubulin turned out to be 97%.

For orientation: GI50 means the concentration giving 50% growth inhibition. Broadly, the IC50 is the concentration needed to halve the response being measured. Take `COc1ccc(/C=C\c2cc(OC)c(OC)c(OC)c2)cc1OP(=O)([O-])[O-].[Na+].[Na+]` [Compound 1d, combretastatin A4 sodium phosphate, reference compound]: the 50% growth inhibitory concentration (GI50) was 0.34 µg/mL in the data set with KM20L2; 0.041 µg/mL in the data set on SK-MEL-5; 0.023 µg/mL with OVCAR-3; 0.029 µg/mL in the data set with NCI-H460; 0.0004 µg/mL in data set [1]; 0.041 µg/mL in the data set on A498. The GI50 in data set [2] (setting [4]) turned out to be 0.0128 µM; with SF-295, 0.036 µg/mL. The concentration for half-maximal inhibition (IC50) in the data set on bovine brain tubulin is over 80 µM. The “activity against tubulin / in inhibiting assembly (in words)” value in the data set with bovine brain tubulin was “totally inactive”. In addition, the “Inhibition of colchicine binding % inhibition” value in the data set with tubulin is given as 4%.

With `COc1ccc(C=Cc2cc(OC)c(OC)c(OC)c2)cc1` [Compound 1e, reference compound], the IC50 with bovine brain tubulin stood at 1.3 ± 0.2 µM. The “Inhibition of colchicine binding % inhibition” value in the data set on tubulin turned out to be 97%.

In general, solubility refers to how much of the substance goes into solution per volume. A higher solubility goes with a readily soluble substance. Take `COc1ccc(C(=O)c2cc(OC)c(OC)c(OC)c2)cc1OP(=O)([O-])[O-].[Na+].[Na+]` [Compound 3d, Disodium Phenstatin 3-O-phosphate]: the GI50 in the data set on KM20L2 is 0.27 µg/mL; in the data set on SK-MEL-5 it was 0.0047 µg/mL; with OVCAR-3 it was 0.0025 µg/mL; in the data set on NCI-H460 it was 0.035 µg/mL; in data set [1], under 0.001 µg/mL; in the data set on A498 it was 0.05 µg/mL. Moreover, the 50% growth inhibitory concentration (GI50) in data set [2] (setting [4]) stood at 0.0733 µM; with SF-295 it was 0.012 µg/mL. Also, the IC50 with bovine brain tubulin was determined as 21 ± 3 µM. The “activity against tubulin / in inhibiting assembly (in words)” value in the data set on bovine brain tubulin is “weak activity”. In data set [3], this compound yielded a solubility of 30 mg/mL. In the data set with tubulin, the “activity as an inhibitor of colchicine binding (in words)” value was “moderate activity”. Besides, the “Inhibition of colchicine binding % inhibition” value in the data set on tubulin is reported as 37%. Besides, the “activity relative to phenstatin in colchicine binding assay” value in the data set on tubulin (relative to phenstatin 3b) is “about 40%”.

A word on the melting point: it is the temperature of the solid-liquid transition. `COc1ccc(C(=O)c2cc(OC)c(OC)c(OC)c2)cc1OC(C)=O` [Compound 3e, Phenstatin Acetate] had a melting point of 164 to 165 °C. Further, the G50 in the data set with pharynx FADU turned out to be 0.0055 µg/mL. In the data set on CNS U251, this compound returned a GI50 of 0.0039 µg/mL. Moreover, the concentration for half-maximal inhibition (IC50) in the data set with bovine brain tubulin worked out at 3.5 ± 0.5 µM. Moreover, halving of growth in the data set on prostate DU-145 (GI50) required 0.0029 µg/mL. The “Inhibition of colchicine binding % inhibition” value in the data set on tubulin turned out to be 71%.

In the case of `COc1cc(C(=O)c2ccc3c(c2)OCO3)cc(OC)c1OC` [Compound 4a, 3,4,5-trimethoxy-3′,4′-methylenedioxybenzophenone], the melting point lay in the range of 124 to 125 °C. In the data set on bovine brain tubulin, the half-inhibitory concentration (IC50) is 15 ± 2 µM and the “activity against tubulin / in inhibiting assembly (in words)” value is given as “only weak activity”. In addition, in the data set with tubulin, the “Inhibition of colchicine binding % inhibition” value is recorded as 0%. In data set [2] (setting [5]), the GI50 stood at 2.7 µM.

The compound `COc1cc(C(=O)c2cc(C)cc(C)c2)cc(OC)c1OC` [Compound 4b, 3,4,5-trimethoxy-3′,5′-dimethylbenzophenone] displayed a melting point of 104 to 105 °C. Also, the half-maximal inhibitory concentration (IC50) in the data set with bovine brain tubulin is 11 ± 2 µM. Besides, in the data set with bovine brain tubulin (relative to 4d), the “further fold drop in activity against tubulin” value is 3 fold. In addition, in the data set on tubulin, the “Inhibition of colchicine binding % inhibition” value amounted to 7%. Further, the GI50 in data set [2] (setting [5]) was 3.48 µM.

Consider `COc1ccc(C(=O)c2cc(OC)c(OC)c(OC)c2)cc1OC` [Compound 4c, 3,3′,4,4′,5-pentamethoxybenzophenone], for which, in the data set with bovine brain tubulin, the concentration for half-maximal inhibition (IC50) turned out to be 15 ± 2 µM. The “Inhibition of colchicine binding % inhibition” value in the data set on tubulin is reported as 1%. Also, the 50% growth inhibitory concentration (GI50) in data set [2] (setting [5]) is 5.11 µM.

`COc1cc(OC)cc(C(=O)c2cc(OC)c(OC)c(OC)c2)c1` [Compound 4d, 3,3′,4,5,5′-pentamethoxybenzophenone] registered a melting point of 121 to 122 °C. Moreover, the half-maximal inhibitory concentration (IC50) in the data set with bovine brain tubulin is 3.6 ± 0.8 µM. In addition, the “fold less potent than phenstatin in inhibiting tubulin polymerization” value in the data set on bovine brain tubulin (relative to phenstatin 3b) is listed as 3-4 fold. For the same compound, the “Inhibition of colchicine binding % inhibition” value in the data set with tubulin came to 58%. Further, in data set [2] (Homo sapiens), the 50% growth inhibitory concentration (GI50) stood at 0.543 µM.

For the compound `COc1cc(C(=O)c2cc(Cl)cc(Cl)c2)cc(OC)c1OC` [Compound 4e, 3,5-dichloro-3′,4′,5′-trimethoxybenzophenone], the melting point is 131 to 132 °C. The “activity against tubulin / in inhibiting assembly (in words)” value in the data set on bovine brain tubulin is “almost inert”. Moreover, the 50% growth inhibitory concentration (GI50) in [2] (setting [5]) was found to be 5.12 µM.

In turn, `COc1cc(C(=O)c2cc(F)cc(F)c2)cc(OC)c1OC` [Compound 4f, 3,5-difluoro-3′,4′,5′-trimethoxybenzophenone] registered a melting point of 121 to 123 °C. Besides, in the data set with bovine brain tubulin, the IC50 came to 39 ± 7 µM and the “activity against tubulin / in inhibiting assembly (in words)” value was “almost inert”. Further, the “Inhibition of colchicine binding % inhibition” value in the data set with tubulin was 0%. Besides, in data set [2] (Homo sapiens), the concentration for 50% growth inhibition (GI50) amounted to 4.94 µM.

With `COc1ccc(Cc2cc(OC)c(OC)c(OC)c2)cc1O` [Compound 7a, reference compound], the IC50 in the data set with bovine brain tubulin was found to be 3.3 ± 0.5 µM. The “Inhibition of colchicine binding % inhibition” value with tubulin amounted to 65%.

`COc1ccc(Cc2cc(OC)c(OC)c(OC)c2)cc1` [Compound 7b, reference compound]: the 50% inhibitory concentration (IC50) with bovine brain tubulin was 4.4 ± 0.2 µM. Moreover, the “Inhibition of colchicine binding % inhibition” value with tubulin worked out at 56%.

Take `COc1ccc(CCc2cc(OC)c(OC)c(OC)c2)cc1O` [Compound 8a, reference compound]: the IC50 in the data set with bovine brain tubulin was 2.1 ± 0.3 µM. In addition, in the data set on tubulin, the “Inhibition of colchicine binding % inhibition” value was 77%.

On to `COc1ccc(CCc2cc(OC)c(OC)c(OC)c2)cc1` [Compound 8b, reference compound], for which, in the data set with bovine brain tubulin, the IC50 was 3.2 ± 0.3 µM. Moreover, the “Inhibition of colchicine binding % inhibition” value with tubulin is listed as 54%.
